# Laboratory results taken from ChEMBL document CHEMBL5113502, “Accommodation of ring C expanded deoxyvasicinone in the HDAC inhibitory pharmacophore culminates into a tractable anti-lung cancer agent and pH-responsive nanocarrier” (Eur J Med Chem, 2022).
# Legend:
# Format in all cases: functional, cell-based
# [1] = test system: A549; assay: Cytotoxicity against human A549 cells assessed as cell viability after 48 hrs by MTT assay; conditions: A549, 48 h
# [2] = test system: NCI-H727; assay: Cytotoxicity against human NCI-H727 cells assessed as cell viability after 48 hrs by MTT assay; conditions: NCI-H727, 48 h
# [3] = test system: HOP-62; assay: Cytotoxicity against human HOP-62 cells assessed as cell viability after 48 hrs by MTT assay; conditions: HOP-62, 48 h
Structure (SMILES),IC50 [1] [µM],IC50 [2] [µM],IC50 [3] [µM]
O=C(CCCCCC(=O)Nc1ccc2nc3n(c(=O)c2c1)CCCCC3)NO,11,–,–
O=C(/C=C/c1cccc(S(=O)(=O)Nc2ccc3nc4n(c(=O)c3c2)CCCCC4)c1)NO,3,–,–
O=C(NO)c1ccc(CNc2ccc3nc4n(c(=O)c3c2)CCCCC4)cc1,10,–,–
O=C(CCCCCCCCC(=O)Nc1ccc2nc3n(c(=O)c2c1)CCCCC3)NO,11,–,–
O=C(CCCCCCC(=O)Nc1ccc2nc3n(c(=O)c2c1)CCC3)NO,17,–,–
O=C(NO)c1ccc(C(=O)Nc2ccc3nc4n(c(=O)c3c2)CCCCC4)cc1,9,–,–
O=C(/C=C/c1ccc(CNc2ccc3nc4n(c(=O)c3c2)CCCC4)cc1)NO,1.56,1.34,1.71
O=C(CCCCCCCC(=O)Nc1ccc2nc3n(c(=O)c2c1)CCCCC3)NO,12,–,–
O=C(CCCCCCC(=O)Nc1ccc2nc3n(c(=O)c2c1)CCCCCC3)NO,22,–,–
O=c1c2ccccc2nc2n1CCCCC2,6,–,–
O=C(/C=C/c1ccc(CNc2ccc3nc4n(c(=O)c3c2)CCCCCC4)cc1)NO,1.89,1.78,1.95
O=C(CCCCCCC(=O)Nc1ccc2nc3n(c(=O)c2c1)CCCCC3)NO,14,–,–
O=C(CCCCCCC(=O)Nc1ccc2nc3n(c(=O)c2c1)CCCC3)NO,16,–,–
O=C(/C=C/c1ccc(CNc2ccc3nc4n(c(=O)c3c2)CCC4)cc1)NO,1.21,1.11,1.78
